The assay addresses T1, KATP channels (Homo sapiens, UniProt O60706+Q14654).
T1 construct: TE671 human medulloblastoma cells were obtained from ATCC; host or cells: TE671 human medulloblastoma cells
Briefly: Potassium Channel Assay (FLIPR membrane potential). Also noted: key: A compound was designated as active if it produced greater than or equal to 10% response at 30 μM; A compound was designated as inactive if it produced less than 10% response at 30 μM. In kind it is cell-based. The settings on record: TE671 human medulloblastoma cells, 30 μM, Membrane Potential Assay Dye. The protocol:
TE671 human medulloblastoma cells were obtained from ATCC and grown in Dulbecco's modified Eagle's medium (DMEM) supplemented with 10% fetal bovine serum, 100 U/ml penicillin and 100 U/ml streptomycine.
The day before testing, the cells were plated in black 96-well plates at 50K/well. On the day of testing, the growth media was removed, then 100 μl of FLIPR buffer (20 mM HEPES, 120 mM NaCl, 2 mM KCl, 2 mM CaCl2, 1 mM MgCl2, 5 mM Glucose) and 100 μl of Membrane Potential Assay Dye (Molecular Devices) dissolved in FLIPR buffer were added to each well. The cells were incubated at room temperature for 15 to 30 min.
The effect of test compounds on KATP channels were evaluated on a fluorometric imaging plate reader (FLIPR, Molecular Devices) at room temperature. After a baseline period, 50 μl of 5× stock solution of test compound prepared in FLIPR buffer was added and fluorescent change was monitored for 3 minutes. After this reading, glyburide, a KATP channel blocker, was added to a final concentration of 5 μM to check the specificity of the test compound as a KATP channel openers. Hyperpolarization resulting from KATP channel opening was observed as a decrease in fluorescent intensity.
Representative compounds of the present invention were tested according to the procedure described above, with results as listed in Table 2 below. Test compound activity was determined as the percent. A compound was designated as active if it produced greater than or equal to 10% response at 30 μM.
T1 sequence (O60706 1-1549 isoform O60706-2): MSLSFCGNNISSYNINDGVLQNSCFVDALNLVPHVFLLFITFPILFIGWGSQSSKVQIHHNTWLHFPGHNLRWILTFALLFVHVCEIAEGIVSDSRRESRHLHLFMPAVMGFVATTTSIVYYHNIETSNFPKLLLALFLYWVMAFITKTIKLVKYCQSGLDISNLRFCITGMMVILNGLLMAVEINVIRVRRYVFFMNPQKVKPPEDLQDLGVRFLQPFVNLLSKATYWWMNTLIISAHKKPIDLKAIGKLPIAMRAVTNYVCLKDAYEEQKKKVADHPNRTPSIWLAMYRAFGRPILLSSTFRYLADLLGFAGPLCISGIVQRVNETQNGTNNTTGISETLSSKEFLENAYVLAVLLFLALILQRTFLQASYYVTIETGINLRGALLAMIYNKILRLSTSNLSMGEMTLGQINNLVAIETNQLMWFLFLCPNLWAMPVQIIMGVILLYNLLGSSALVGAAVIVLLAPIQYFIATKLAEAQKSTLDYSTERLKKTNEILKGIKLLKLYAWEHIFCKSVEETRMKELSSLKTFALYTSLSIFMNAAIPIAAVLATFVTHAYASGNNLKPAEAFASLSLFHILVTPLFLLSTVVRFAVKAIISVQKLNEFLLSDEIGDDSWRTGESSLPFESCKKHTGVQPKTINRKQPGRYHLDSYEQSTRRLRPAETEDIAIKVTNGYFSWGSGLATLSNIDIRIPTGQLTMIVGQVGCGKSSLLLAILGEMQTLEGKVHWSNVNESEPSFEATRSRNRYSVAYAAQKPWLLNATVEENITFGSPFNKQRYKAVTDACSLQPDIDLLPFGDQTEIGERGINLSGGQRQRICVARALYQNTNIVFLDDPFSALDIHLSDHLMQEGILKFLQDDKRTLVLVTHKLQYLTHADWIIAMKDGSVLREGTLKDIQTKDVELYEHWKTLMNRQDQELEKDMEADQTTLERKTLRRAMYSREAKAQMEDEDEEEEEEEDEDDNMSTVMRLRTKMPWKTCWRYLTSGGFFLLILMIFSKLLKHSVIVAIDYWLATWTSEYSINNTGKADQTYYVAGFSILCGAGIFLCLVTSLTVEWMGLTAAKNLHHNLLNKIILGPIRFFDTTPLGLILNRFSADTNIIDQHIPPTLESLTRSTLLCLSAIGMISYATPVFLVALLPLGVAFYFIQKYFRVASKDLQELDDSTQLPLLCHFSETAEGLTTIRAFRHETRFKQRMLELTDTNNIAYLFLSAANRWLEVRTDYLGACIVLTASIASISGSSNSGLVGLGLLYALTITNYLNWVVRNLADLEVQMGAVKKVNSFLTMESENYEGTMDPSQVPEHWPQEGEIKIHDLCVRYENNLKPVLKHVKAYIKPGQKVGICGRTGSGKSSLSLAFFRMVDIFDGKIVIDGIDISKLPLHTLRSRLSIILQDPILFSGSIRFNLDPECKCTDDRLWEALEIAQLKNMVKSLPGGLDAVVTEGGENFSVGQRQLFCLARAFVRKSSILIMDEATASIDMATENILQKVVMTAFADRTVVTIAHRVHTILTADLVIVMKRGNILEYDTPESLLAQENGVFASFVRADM
T1 sequence (Q14654 whole entry): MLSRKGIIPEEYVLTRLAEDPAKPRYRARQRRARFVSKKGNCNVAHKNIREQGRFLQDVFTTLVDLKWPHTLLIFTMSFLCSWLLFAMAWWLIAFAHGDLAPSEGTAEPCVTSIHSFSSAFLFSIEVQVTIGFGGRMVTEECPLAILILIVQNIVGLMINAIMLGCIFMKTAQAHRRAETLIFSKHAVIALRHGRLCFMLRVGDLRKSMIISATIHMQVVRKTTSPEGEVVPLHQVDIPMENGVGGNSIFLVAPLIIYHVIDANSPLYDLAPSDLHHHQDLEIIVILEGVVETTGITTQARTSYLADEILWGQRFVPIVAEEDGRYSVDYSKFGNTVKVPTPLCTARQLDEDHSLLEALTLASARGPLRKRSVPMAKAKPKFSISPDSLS
Consider `CC1(c2nc3ccc(Cl)cc3c(=O)[nH]2)CC=NN1` (stereo not shown) [compound 1, 6-Chloro-2-(3-methyl-3,4-dihydro-2H-pyrazol-3-vi)-3H-quinazolin-4-one], for which the response entry is given as “active”.
On to `CC1(c2nc3ccc(Br)cc3c(=O)[nH]2)CC=NN1` (stereo not shown) [compound 2, 6-Bromo-2-(3-methyl-3,4-dihydro-2H-pyrazol-3-vi)-3H-quinazolin-4-one], for which the response entry is recorded as “active”.
Take `CC1(c2nc3cc(C(F)(F)F)ccc3c(=O)[nH]2)CC=NN1` (stereo not shown) [compound 3, 2-(3-Methyl-3,4-dihydro-2H-pyrazol-3-yl)-7-trifluoromethyl-3H-quinazolin-4-one]: the response result is given as “active”.
With `CCOC(=O)C1=NNC(C)(c2nc3ccc(Cl)cc3c(=O)[nH]2)C1` (stereo not shown) [compound 4, 5-(6-Chloro-4-oxo-3,4-dihydro-quinazolin-2-yl)-5-methyl-4,5-dihydro-1H-pyrazole-3-carboxylic acid ethyl ester], the response result is listed as “active”.

The values above are taken from patent US8053441B2, “Pyrazolylquinazolinones as potassium channel openers” (Janssen Pharmaceutica N.V., priority 2006, dated 2011).
